Test results published in PubChem BioAssay (NCI).
Values joined by “and” are separate entries in the source; they are usually repeats but may differ in a detail not shown here. Equal values may be shown once.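 1) Cells in 96-well plates. 2) Compound, 48 h, 5 concentrations. 3) Linear interpolation between surrounding doses. 4) Unreached endpoint = highest concentration. GI50 = concentration required for 50% inhibition of growth. Definition used: TGI = concentration required for complete inhibition of growth.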

Legend:
Experiment in all cases: DTP human tumour cell line panel, 48 h
[1] = tested on: K-562 leukemia
[2] = tested on: TK-10 renal
[3] = tested on: T-47D breast
[4] = tested on: HCT-116 colon
[5] = tested on: HL-60(TB) leukemia
[6] = tested on: DU-145 prostate
[7] = tested on: SR leukemia
[8] = tested on: RPMI-8226 leukemia
[9] = tested on: 786-0 renal
[10] = tested on: M14 melanoma

`N#CSCC1CC(O)(c2ccccc2)CC(c2ccc(Cl)cc2)O1` (stereo unspecified) showed a GI50 [1] of 2.41 µM, a TGI [1] of 9.77 µM and a GI50 [2] of 2.13 µM. For the same molecule, the TGI [2] was 4.33 µM, the GI50 [3] was 1.7 µM and the TGI [3] was 6.27 µM. It also gave a GI50 [4] of 1.62 µM, a TGI [4] of 3.1 µM and a GI50 [5] of 2.52 µM. It also gave a TGI [5] of 5.3 µM, a GI50 [6] of 2.18 µM and a TGI [6] of 4.72 µM. It also gave a GI50 [7] of 1.65 µM, a TGI [7] of 5.02 µM and a GI50 [8] of 1.26 µM. For the same molecule, the TGI [8] was 5.39 µM, the GI50 [9] was 2.14 µM and the TGI [9] was 4.66 µM. The GI50 [10] was 1.75 µM and the TGI [10] was 3.28 µM.
`Clc1ccc(N/N=C(\c2ccccc2)c2ccccn2)nc1` showed a GI50 [1] of 0.0406 µM, a TGI [1] of over 100 µM and a GI50 [2] of 0.338 µM. It also gave a TGI [2] of over 100 µM, a GI50 [3] of under 0.0163 µM and a TGI [3] of over 100 µM. The GI50 [4] was 0.0313 µM, the TGI [4] was 10.6 µM and 11.1 µM and the GI50 [5] was 0.0868 µM. It also gave a GI50 [6] of 0.243 µM, a TGI [6] of over 100 µM and a GI50 [7] of 0.0769 µM. It also gave a TGI [7] of 3.5 µM, a GI50 [8] of 0.128 µM and a TGI [8] of over 52.6 µM. The GI50 [9] was 0.291 µM, the TGI [9] was 15.8 µM and the GI50 [10] was 0.0879 µM. The TGI [10] was 14.4 µM and 16.1 µM.
Molecule `COC1C(O)CC(OC2CC(OC3CC(O[C@@H]4C(=O)c5c(cc6cc(OC7CC(OC8CC(O)C(O)C(C)O8)C(O)C(C)O7)c(C)c(O)c6c5O)C[C@H]4[C@H](OC)C(=O)[C@@H](O)[C@@H](C)O)OC(C)C3O)OC(C)C2O)OC1C` (stereo partly specified) has a GI50 [1] of under 0.019 µM, a TGI [1] of over 100 µM and a TGI [2] of over 39.8 µM. It also gave a TGI [3] of 0.203 µM, a TGI [4] of over 100 µM and a GI50 [5] of under 0.0215 µM. The TGI [5] was 1.57 µM, the TGI [6] was 0.281 µM and the TGI [7] was 0.558 µM. It also gave a TGI [8] of 0.383 µM, a TGI [9] of over 100 µM and a TGI [10] of 0.116 µM.
For `CCCC(CCC)Oc1ccc(CCCC2=C(O)c3ccccc3C(=O)C2=O)cc1`, the GI50 [1] was 3.31 µM, the TGI [1] was 10.7 µM and the GI50 [2] was 8.03 µM. For the same molecule, the TGI [2] was 21.3 µM, the GI50 [3] was 12 µM and the TGI [3] was 31.6 µM. It also gave a GI50 [4] of 2.17 µM, a TGI [4] of 13.6 µM and a GI50 [5] of 2.68 µM. For the same molecule, the TGI [5] was 6.27 µM, the GI50 [6] was 6.71 µM and the TGI [6] was 19 µM. It also gave a GI50 [7] of 3.09 µM, a TGI [7] of 8.3 µM and a GI50 [8] of 2.9 µM. The TGI [8] was 7.49 µM, the GI50 [9] was 4.11 µM and the TGI [9] was 16.8 µM. It also gave a GI50 [10] of 9.35 µM and a TGI [10] of 22.2 µM.
With `CC(C)c1ccc(/C=N/N=C(N)N)cc1` the GI50 [1] was 4.16 µM, the TGI [1] was 16.2 µM and the GI50 [2] was 12.9 µM. It also gave a TGI [2] of 26.4 µM, a GI50 [3] of 2.03 µM and a TGI [3] of 5.53 µM. The GI50 [4] was 3.34 µM, the TGI [4] was 11.8 µM and the GI50 [5] was 4.36 µM. It also gave a TGI [5] of 11.3 µM, a GI50 [6] of 11.2 µM and a TGI [6] of 23.8 µM. It also gave a GI50 [7] of 3.31 µM, a TGI [7] of 12.7 µM and a GI50 [8] of 3.6 µM. The TGI [8] was 16.4 µM, the GI50 [9] was 12.4 µM and the TGI [9] was 27.3 µM. It also gave a GI50 [10] of 2.02 µM and a TGI [10] of 4.2 µM.
`O=C1Nc2ccc(CN3CCOC3=O)cc2/C1=C/c1cc(CN2CCOCC2)c[nH]1` was tested, and the GI50 [1] was 27.3 µM, the TGI [1] was over 100 µM and the GI50 [2] was 65.5 µM. The TGI [2] was over 100 µM, the GI50 [3] was 24.9 µM and the TGI [3] was over 88.3 µM. For the same molecule, the GI50 [4] was 37.2 µM, the TGI [4] was over 100 µM and the GI50 [5] was 25.1 µM. For the same molecule, the TGI [5] was over 80.7 µM, the GI50 [6] was over 100 µM and the TGI [6] was over 100 µM. It also gave a GI50 [7] of 7.43 µM, a TGI [7] of 73.9 µM and a GI50 [8] of 19.2 µM. For the same molecule, the TGI [8] was 53.7 µM, the GI50 [9] was 62.5 µM and the TGI [9] was over 100 µM. The GI50 [10] was 34 µM and the TGI [10] was over 93.9 µM.
Molecule `CN(N=O)C(=O)Nc1ccc(C(=O)O)cc1` has a TGI [1] of over 100 µM, a TGI [2] of over 100 µM and a TGI [3] of over 100 µM. The TGI [4] was over 100 µM, the TGI [5] was over 100 µM and the TGI [6] was over 100 µM. For the same molecule, the TGI [7] was over 100 µM, the TGI [8] was over 100 µM and the TGI [9] was over 100 µM. The TGI [10] was over 100 µM.
`CC(=O)[O][Hg][CH2]C1(C)COC(C)([CH2][Hg][O]C(C)=O)CO1` (stereo unspecified) showed a GI50 [1] of 0.607 µM, a TGI [1] of 2.71 µM and a GI50 [2] of 2.29 µM. It also gave a TGI [2] of 6.2 µM, a GI50 [3] of 2.94 µM and a TGI [3] of 21.4 µM. The GI50 [4] was 1.22 µM, the TGI [4] was 6.58 µM and the GI50 [5] was 2.89 µM. The TGI [5] was 5.94 µM, the GI50 [6] was 10.4 µM and the TGI [6] was 23.1 µM. The GI50 [7] was 0.607 µM, the TGI [7] was 3.59 µM and the GI50 [8] was 1.17 µM. The TGI [8] was 8.29 µM, the GI50 [9] was 16.8 µM and the TGI [9] was 31 µM. It also gave a GI50 [10] of 13.6 µM and a TGI [10] of 27.4 µM.
Work on `COc1ccccc1Nc1nc2ccccc2c2occc12` yielded a GI50 [1] of 12.9 µM, a TGI [1] of 28 µM and a GI50 [2] of 18.8 µM. The TGI [2] was over 50 µM, the GI50 [3] was 27.5 µM and the TGI [3] was over 50 µM. For the same molecule, the GI50 [4] was 20.8 µM, the TGI [4] was over 50 µM and the GI50 [5] was 20.5 µM. The TGI [5] was over 50 µM, the GI50 [6] was 16.9 µM and the TGI [6] was over 50 µM. It also gave a GI50 [7] of 9.33 µM, a TGI [7] of 20.3 µM and a GI50 [8] of 20.6 µM. For the same molecule, the TGI [8] was over 50 µM, the GI50 [9] was 15.3 µM and the TGI [9] was 38.7 µM. For the same molecule, the GI50 [10] was 17.3 µM and the TGI [10] was 40.4 µM.
Molecule `O=C(Nc1nc(-c2ccccc2)cs1)c1cc(O)c(O)c(O)c1` has a GI50 [1] of 2.72 µM, a TGI [1] of over 100 µM and a GI50 [2] of 3.62 µM. The TGI [2] was 59.4 µM, the GI50 [3] was 2.34 µM and the TGI [3] was 22.8 µM. It also gave a GI50 [4] of 2.97 µM, a TGI [4] of 16.5 µM and a GI50 [5] of 3.05 µM. It also gave a TGI [5] of 10.1 µM, a GI50 [6] of 6.41 µM and a TGI [6] of over 100 µM. For the same molecule, the GI50 [7] was 1.62 µM, the TGI [7] was 19.9 µM and the GI50 [8] was 2.99 µM. For the same molecule, the TGI [8] was 22.1 µM, the GI50 [9] was 3.38 µM and the TGI [9] was 10.6 µM. It also gave a GI50 [10] of 7.9 µM and a TGI [10] of 44 µM.
With `CCOC(=O)Nc1ccc(C(=O)/C=C/c2ccccc2)cc1` the GI50 [1] was 8.28 µM, the TGI [1] was over 100 µM and the GI50 [2] was 28.9 µM. The TGI [2] was 86.5 µM, the GI50 [3] was 21.6 µM and the TGI [3] was over 100 µM. It also gave a GI50 [4] of 3.31 µM, a TGI [4] of 11.4 µM and a GI50 [5] of 31.4 µM. The TGI [5] was over 100 µM, the GI50 [6] was 22.8 µM and the TGI [6] was 85.1 µM. For the same molecule, the GI50 [7] was 3.68 µM, the TGI [7] was over 100 µM and the GI50 [8] was 3.76 µM. It also gave a TGI [8] of 22.5 µM, a GI50 [9] of 26.3 µM and a TGI [9] of 81.5 µM. For the same molecule, the GI50 [10] was 19.1 µM and the TGI [10] was 44.3 µM.
